Assay results reported in ChEMBL document CHEMBL1151783 (Bioorg Med Chem Lett, 2008).
In brackets after ≈: the same amount, converted by molar mass. Activity calls are given as the source filed them. The calls are words filed in the database; no cut-off is given here.

Columns and labels:
Bos taurus [1] = species: Bos taurus; test: Inhibition of bovine tubulin polymerization at 5 uM
[2] = Membrane permeability by PAMPA; assay type: ADME; conditions: for Papp: read-out: permeability
[3] = Solubility in phosphate buffer saline after 2 hrs; assay type: physicochemical; conditions: phosphate buffered saline
Bos taurus [4] = species: Bos taurus; test: Inhibition of bovine tubulin polymerization at 10 uM
HepG2 = test: Cytotoxicity against human HepG2 cells after 48 hrs by luminescence cell viability assay; assay type: functional, cell-based; conditions: HepG2, 48 h
[5] = Displacement of [3H]colchicine from bovine tubulin after 2 hrs by fluorescence polarization assay; parameters: species or system Bos taurus
Vero [6] = test: Induction of apoptosis in african green monkey Vero cells assessed as caspase 3/7 activity after 18 hrs […]; assay type: functional, cell-based; conditions: Chlorocebus sabaeus
Vero [7] = test: Cytotoxicity against african green monkey Vero cells after 48 hrs by luminescence cell viability assay; assay type: cell-based; conditions: Chlorocebus sabaeus
[8] = Binding affinity to bovine tubulin after 2 hrs by fluorescence polarization assay; parameters: species or system Bos taurus
Vero [9] = test: Cell cycle arrest in african green monkey Vero cells assessed as accumulation at G2/M phase after 18 hrs by flow cytometry using propidium iodide staining; assay type: functional, cell-based; conditions: Chlorocebus sabaeus
Raji = test: Cytotoxicity against human Raji cells after 48 hrs by luminescence cell viability assay; assay type: functional, cell-based
HeLa = test: Cytotoxicity against human HeLa cells after 48 hrs by luminescence cell viability assay; assay type: functional, cell-based
Bos taurus [10] = species: Bos taurus; test: Binding affinity to bovine tubulin at 10 uM after 2 hrs by fluorescence polarization assay

Row | Structure (SMILES) | Activity (Bos taurus [1]) | permeability [2] [×10⁻⁶ cm/s] | solubility at 2 h [3] [µM] | Activity (Bos taurus [4]) | EC50 (HepG2) [nM] | IC50 [5] [µM] | Papp [2] [×10⁻⁶ cm/s] | EC50 (Vero [6]) [µM] | EC50 (Vero [7]) [nM] | Kd [8] [µM] | EC50 (Vero [9]) [µM] | EC50 (Raji) [nM] | EC50 (HeLa) [nM] | Activity (Bos taurus [10])
1 | COc1cc2c(c(OC)c1OC)-c1ccc(OC)c(=O)cc1[C@@H](NC(C)=O)CC2 [COLCHICINE] | Active | 415 | > 250 | – | – | – | – | – | – | – | – | – | – | –
2 | CC(=O)O[C@H]1C(=O)[C@@]2(C)[C@H]([C@H](OC(=O)c3ccccc3)[C@]3(O)C[C@H](OC(=O)[C@H](O)[C@@H](NC(=O)c4ccccc4)c4ccccc4)C(C)=C1C3(C)C)[C@]1(OC(C)=O)CO[C@@H]1C[C@@H]2O | – | – | – | inactive | – | – | – | – | – | – | – | – | – | –
3 | COc1cc2c(c(OC)c1OC)-c1ccc(OC)c(=O)cc1[C@@H](NC(=O)CCCCCNC(=O)COc1ccc(/C=C/C3=[N+]4C(=Cc5ccc(-c6ccc[nH]6)n5[B-]4(F)F)C=C3)cc1)CC2 | Active | – | < 10 | – | 1200 | 6.4 | < 10 | 10.5 | > 10000 | 7.6 | 6.8 | 650 | 1900 | –
4 | COc1cc2c(c(OC)c1OC)-c1ccc(OC)c(=O)cc1[C@@H](NC(=O)CCC1=[N+]3C(=Cc4cccn4[B-]3(F)F)C=C1)CC2 | Active | – | 32 (≈ 19.3 µg/mL) | – | 180 | 3.9 | 108 | 2.6 | 2300 | 5.8 | 0.96 | 138 | 360 | Active
